Data published in PMC12703428, “Development of Granzyme A Turn‐ON Fluorescent Activity‐Based Probes” (Chembiochem, 2025).
Entries after “also recorded” stand apart in the source; their conditions may differ. Square brackets hold non-standard residues; d marks the D form. Ends that are not written are not given here. Oic = O=C(O)[C@@H]1C[C@@H]2CCCC[C@@H]2N1; Tic = O=C(O)[C@@H]1Cc2ccccc2CN1

Columns and labels:
[1] = molecular target: T1, neutrophil elastase (NE) (Homo sapiens, UniProt P08246); assay: Cross-reactivity labeling, neutrophil elastase; assay type: biochemical; conditions: protease 100 nM, probe 100 nM, 2 h, 37 °C, in-gel fluorescence
T1 sequence (P08246 30-267): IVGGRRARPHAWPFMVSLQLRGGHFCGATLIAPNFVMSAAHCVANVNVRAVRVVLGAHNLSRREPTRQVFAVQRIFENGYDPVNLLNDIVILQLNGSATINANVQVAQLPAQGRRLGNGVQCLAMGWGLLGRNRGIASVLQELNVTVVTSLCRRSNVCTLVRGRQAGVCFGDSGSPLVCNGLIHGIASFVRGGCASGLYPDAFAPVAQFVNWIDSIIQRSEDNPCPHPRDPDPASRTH
Procedure: Protease (100 nM) HNE PR3 GzmK GzmA
Protease (100 nM) GzmA GzmK
Supplementary Figure 2. Cross-reactivity of probes. (A) Labeling of GzmA, GzmK, PR3, and HNE
(100 nM, 2 h, 37 °C) by 100 nM of 5 and 6. (B) Labeling of GzmA and GzmK (100 nM, 2 h, 37 °C) by
100 nM of 3 – 6. (C) Concentration-dependent labeling of GzmA and GzmK (100 nM, 2 h, 37 °C) by 5 and
6. Protein samples were analyzed by SDS-PAGE and in-gel fluorescence scanning for Cy5 signal.
Protein loading was confirmed by SYPRO Ruby staining. […]

[2] = molecular target: T2, GzmA in intact NK‐92 cells (Homo sapiens, UniProt P12544); assay: Labeling of GzmA in intact NK-92 cells (in-gel fluorescence); assay type: cell-based; conditions: 2 h, 37 °C; for Labeling of GzmA in intact NK-92 cells: 1x10^6 NK-92 cells, lysis then in-gel fluorescence and GzmA western blot; for Cell permeability / cellular uptake: intact NK-92 cells, judged from labeling in intact cells
T2 construct: host or cells: NK-92
T2 sequence (P12544 29-262): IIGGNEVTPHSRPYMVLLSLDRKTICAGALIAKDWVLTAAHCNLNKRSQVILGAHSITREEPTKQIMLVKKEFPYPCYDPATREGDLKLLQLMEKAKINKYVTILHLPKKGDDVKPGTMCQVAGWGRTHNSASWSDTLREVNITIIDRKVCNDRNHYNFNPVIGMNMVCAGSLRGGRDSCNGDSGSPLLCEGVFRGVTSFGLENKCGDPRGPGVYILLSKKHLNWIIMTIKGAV
Procedure: Figure 4 Characterization of qABPs in native proteomes. A) Labeling of GzmA by 5 and 6 in lysates of various cell lines (1 h, 37 °C). B) Stability of 5 and 6 in buffer and cell media (11 h, 37 °C). The hydrolysis of probes was measured by monitoring the production of Cy5 fluorescence signal over time. […] C) Labeling of GzmA by probes 3 –6 in NK‐92 cells (2 h, 37 °C). D) Flow cytometry analysis of protein labeling in NK‐92 cells by 3 –5. […] E) Flow cytometry analysis of concentration‐dependent GzmA labeling in NK‐92 cells and S/N of 5 (5 μM, 2 h, 37 °C). […] F) Flow cytometry analysis of protein labeling by 5 in MDA‐MB‐231 cells co‐cultured with NK‐92 cells (see Supporting Information for conditions). […] TEXT PRINTED IN THE PICTURE: (E) qABP 5: S/N = 4 […]
Final reaction volume was 20 µL. […]
Conditions for Figure 4C: Various concentrations of probes 3-6 were incubated with 1x10^6 NK-92 cells for 2 h at 37 °C in a humidified incubator. Cells were centrifuged, washed with PBS (x2) and lysed with ~40 µL of ice-cold RIPA buffer. Lysates were collected, protein concentration was measured with PIERCE BCA protein assay and samples were analyzed with in-gel fluorescence and GzmA western blotting.
D. Flow cytometry analysis […]
Conditions for Figure 4F: In a 6-well cell culture plate, 5x10^5 MDA-MB-231 cells were seeded and allowed to attach overnight. After confirming cell attachment under the microscope, media were removed and fresh media containing 2x10^6 NK-92 cells (or NK-92 culture media alone for control) were added along with simultaneous addition of qABP 5 (5 µM). Cells were co-cultured for the indicated times at 37 °C under 5% CO2 in a humidified atmosphere. […]
E. Synthesis of compounds
1H, 13C and 31P spectra were acquired on a 500 MHz NMR in CDCl3 or CD3OD at 25 °C. The 1H chemical shifts are given in parts per million (δ) with respect to an internal tetramethylsilane (TMS, δ 0.00 ppm) standard. NMR data are reported in the following format: chemical shifts (multiplicity (s = singlet, d = doublet, t = triplet, m = multiplet), coupling constants [Hz], integration). LCMS data were acquired on Agilent 1200 series LC/MS or Shimadzu Prominence-i LC-2030s instrument, whereas HRMS data were obtained on an Agilent Q-TOF LC/MS/MS instrument. All compounds are >95% pure by HPLC analysis.

| Substance | Labeling of NE (cross-reactivity) [1] | Labeling of GzmA in intact NK-92 cells [2] | Cell permeability / cellular uptake [2] |
| --- | --- | --- | --- |
| IGNR [compound 5] | Neither probe 5 nor 6 showed detectable labeling | effectively labeled active GzmA in intact cells | excellent cellular uptake |
| [Tic]G[Oic]R [compound 6] | Neither probe 5 nor 6 showed detectable labeling | poor labeling | limited cell permeability; also recorded: cell impermeable |
